Test results: patent US20110178050A1, “USE OF CYCLOLIGNANS FOR THE TREATMENT OF A HYPERACTIVE IMMUNE SYSTEM” (Axelar AB, priority 2008, published 2011)
“And” between values parts separate entries of the source, which are not always exact repeats. Equal values may be shown once.

Tests used:
mice = test: Systemic toxicity of trans and cis isomers of cyclolignans in mice; conditions: nude mice; for Survival (in words) / Toxic signs (in words): 28 mg/kg/d intraperitoneally daily for 5 days; for No. of surviving mice/No. of treated mice: 28 mg/kg/d intraperitoneally daily
Method: The experiment was carried out to determine the significance of the stereochemistry of cyclolignans for their general toxicity by investigating systemic toxic effects of trans and cis isomers of cyclolignans in mice. Five-week old pathogen-free nude mice (nu/nu) were used and housed within plastic isolators in a sterile facility. Experimental treatments with podophyllotoxin, deoxypodophyllotoxin, picropodophyllin and deoxypicropodophyllin were performed by injecting each compound dissolved in 10 microL of a mixture of DMSO and saline intraperitoneally daily for 5 days. The dose injected once daily was 28 mg/kg/d and 6 mice were used for each drug. Control mice were treated with the vehicle only.
The mice were checked daily for signs of discomfort, diseases and weight loss.

helper T lymphocytes = test: Activation of helper T lymphocytes in human blood (FACS, CD4/CD69); type: cell-based; conditions: 30 min
Method: (§1) The effects of picropodophyllin and deoxypicropodophyllin on the activation of subgroups of lymphocytes in human blood were determined by flow cytometry (FACS). Lymphocytes from human peripheral blood were purified by ficoll-hypaque (Pharmacia, Amersham) and then distributed in FACS tubes at 500,000 cells in 0.5 mL per tube. Cells were kept in RPMI medium (Life technologies) supplemented with 10% bovine serum […] (BGS; Sigma), 1% penicillin-streptomycin (Sigma) and 1% glutamine (Sigma). The cells were incubated for 30 min at room temperature in the absence (control lymphocytes) or presence of picropodophyllin and deoxypicropodophyllin at 0.1 and 2.5 microM concentrations. After washing, the cells were stained 15 min for the surface molecules CD4, CD8 and CD69. CD4 and CD8 are expressed by two subsets of T lymphocytes, i.e. helper T cells and cytotoxic T cells, respectively, and CD69 is a lymphocyte activation marker. The staining was performed with the following fluorophore conjugated antibodies: anti-CD4PB; anti-CD8APC; anti-CD69APCCy7 (Beckton Dickinson). The cells were then washed with PBS containing 2% FCS and 0.05% NaN3 (FACS buffer) and then stained with […] (PI)/FITC Annexin V (Beckton Dickinson) to determine apoptosis of cells, and after incubation for another 15 min and washing, the cells were analysed by flow cytometry (FACSCalibur; Beckton Dickinson). Data were evaluated using the Cellquest computer software (Beckton Dickinson).

cytotoxic T lymphocytes = test: Activation of cytotoxic T lymphocytes in human blood (FACS, CD8/CD69); type: cell-based; conditions: for CD8, percent cytotoxic T cells of total cells (events) / CD8/CD69, percent activated cytotoxic T cells of total cytotoxic T cells: 30 min; for Effect on number of activated cytotoxic T lymphocytes (CD8/CD69), in words: 0.1 and 2.5 microM
Method: as §1

[1] = test system: lymphocytes from human peripheral blood; test: Apoptosis of human blood lymphocytes (PI/Annexin V, FACS); type: cell-based; conditions: 30 min
Method: as §1

human T lymphocytes = test: 3H-thymidine incorporation, Concanavalin A stimulated proliferation of lymphocytes from patients; type: cell-based; conditions: for 3H-thymidine in cyclolignan-treated lymphocytes (% of 3H-thymidine in control lymphocytes): 2.5 microM, Con A three days, 18 h incorporation; for Proliferation of peripheral blood T lymphocytes, in words: lymphocytes of patients with autoimmune diseases
Method: The effects of picropodophyllin and deoxypicropodophyllin on human T lymphocyte function, i.e. the proliferation capacity of human T lymphocytes in response to an antigen/mitogen, were measured using a time course tritium labelled thymidine incorporation assay. Lymphocytes from peripheral blood of patients were purified by ficoll-hypaque (Pharmacia, Amersham) and were distributed in 96 well plates at 100,000 cells per well, and all samples were in triplicates. Cells were kept in RPMI 1640 medium (Life technologies) supplemented with 10% human serum (Sigma), 100 units/mL penicillin (Sigma), 100 microg/mL streptomycin (Sigma) and 2 mM L-glutamine (Sigma). Proliferation of lymphocytes was stimulated with the T lymphocyte mitogen Concanavalin A (Con A) 10 microg/mL (Sigma). After three days incubation with Con A, with and without the cyclolignans, 1 microCi ^3H-thymidine (Amersham) was added to each well, and after another eighteen hours cells were harvested and washed, and the amount of ^3H-thymidine incorporated into newly synthesized DNA determined by scintillation counting.

blood lymphocytes [2] = test: Effect of seven-day treatment on blood lymphocytes in mice; type: in vivo; conditions: 20 mg/kg/12 h intraperitoneally, 7 days
Method: In this experiment, healthy 20-gram mice were treated with picropodophyllin by intraperitoneal injections twice daily, the dose being 20 mg/kg/12 h using DMSO/sunflower oil, 9:1, as vehicle. The control group was treated with the vehicle only (totally per day: 20 μL DMSO/oil). Each group included 3 mice. After treatment for 7 days, the mice were sacrificed and blood samples were taken. The number of blood cells in the samples was counted using an Advia 120 Hematology system from Bayer AB (Diagnostica).

blood lymphocytes [3] = test: Effect of two-week treatment on blood lymphocytes in rats; type: in vivo, rats (Sprague-Dawley); conditions: 20 mg/kg/12 h intraperitoneally, 14 days
Method: In this experiment, healthy 200-grams rats (Sprague-Dawley) were treated with picropodophyllin by intraperitoneal injections twice daily, the dose being 20 mg/kg/12 h, using DMSO/sunflower oil, 9:1, as vehicle. The control group was treated with the vehicle only (totally per day: 200 μL DMSO). Each group included 5 rats. After treatment for 14 days, the rats were sacrificed and blood samples were taken. The number of blood cells in the samples was counted using an Advia 120 Hematology system from Bayer AB (Diagnostica).

[4] = MS (multiple sclerosis) patients
[5] = RA (rheumatoid arthritis) patients
[6] = UC (ulcerative colitis) patients

Row | Compound | Survival (in words) (mice) | Toxic signs (in words) (mice) | No. of surviving mice/No. of treated mice (mice; Day 1) | No. of surviving mice/No. of treated mice (mice; Day 2) | No. of surviving mice/No. of treated mice (mice; Day 3) | No. of surviving mice/No. of treated mice (mice; Day 4) | No. of surviving mice/No. of treated mice (mice; Day 5) | CD4, percent helper T cells of total cells (events) (helper T lymphocytes; 0.1 μM) [%] | CD4/CD69, percent activated helper T cells of total helper T cells (helper T lymphocytes; 0.1 μM) [%] | CD4, percent helper T cells of total cells (events) (helper T lymphocytes; 2.5 μM) [%] | CD4/CD69, percent activated helper T cells of total helper T cells (helper T lymphocytes; 2.5 μM) [%] | CD8, percent cytotoxic T cells of total cells (events) (cytotoxic T lymphocytes; 0.1 μM) [%] | CD8/CD69, percent activated cytotoxic T cells of total cytotoxic T cells (cytotoxic T lymphocytes; 0.1 μM) [%] | CD8, percent cytotoxic T cells of total cells (events) (cytotoxic T lymphocytes; 2.5 μM) [%] | CD8/CD69, percent activated cytotoxic T cells of total cytotoxic T cells (cytotoxic T lymphocytes; 2.5 μM) [%] | Effect on number of activated cytotoxic T lymphocytes (CD8/CD69), in words (cytotoxic T lymphocytes) | ANNEXIN V, percent of total cells ([1]; 0.1 μM) [%] | PI ANNEXIN V, percent of total cells ([1]; 0.1 μM) [%] | PI, percent of total cells ([1]; 0.1 μM) [%] | ANNEXIN V, percent of total cells ([1]; 2.5 μM) [%] | other results
1 | COc1cc([C@@H]2c3cc4c(cc3C[C@H]3COC(=O)[C@H]32)OCO4)cc(OC)c1OC [Deoxypicropodophyllin] | survived the whole 5-day period | did not exhibit any obvious toxic signs | 6/6 | 6/6 | 6/6 | 6/6 | 6/6 | 36.7 | 13.2 | 37.1 | 7.5 | 34.7 | 4.1 | 32.8 | 0.9 | dose-dependently decreased | 1.3 | 9.2 | 0 | 1.5 | PI ANNEXIN V, percent of total cells ([1]; 2.5 μM): 9.3%; PI, percent of total cells ([1]; 2.5 μM): 0%; 3H-thymidine in cyclolignan-treated lymphocytes (% of 3H-thymidine in control lymphocytes) (human T lymphocytes; AD (Alzheimer's disease) patients): 9%; 3H-thymidine in cyclolignan-treated lymphocytes (% of 3H-thymidine in control lymphocytes) (human T lymphocytes; CD (Crohn's disease) patients): 8%; 3H-thymidine in cyclolignan-treated lymphocytes (% of 3H-thymidine in control lymphocytes) (human T lymphocytes; [4]): 8%; 3H-thymidine in cyclolignan-treated lymphocytes (% of 3H-thymidine in control lymphocytes) (human T lymphocytes; [5]): 7%; 3H-thymidine in cyclolignan-treated lymphocytes (% of 3H-thymidine in control lymphocytes) (human T lymphocytes; [6]): 10%; Proliferation of peripheral blood T lymphocytes, in words (human T lymphocytes): suppressed
2 | COc1cc([C@@H]2c3cc4c(cc3[C@H](O)[C@H]3COC(=O)[C@@H]23)OCO4)cc(OC)c1OC [Picropodophyllin] | survived the whole 5-day period | did not exhibit any obvious toxic signs | 6/6 | 6/6 | 6/6 | 6/6 | 6/6 | 36.7 | 11.0 | 36.3 | 9.7 | 35.0 | 3.2 | 34.8 | 1.8 | dose-dependently decreased | 0.9 | 9.4 | 0 | 0.9 | Lymphocytes in blood (blood lymphocytes [2]; individual mice, listed as PPP, 20 mg/kg): 3e+07 L⁻¹ and 1e+07 L⁻¹ and 0 L⁻¹; Effect on number of blood lymphocytes (in words) (blood lymphocytes [2]; mice): reduced the number of blood lymphocytes; Lymphocytes in blood (blood lymphocytes [3]; individual rats, listed as PPP, 20 mg/kg): 3.16e+09 L⁻¹ and 4.5e+08 L⁻¹ and 4.2e+09 L⁻¹ and 2.8e+09 L⁻¹ and 3.86e+09 L⁻¹; Decrease of blood lymphocytes (blood lymphocytes [3]; rats, versus controls): more than 50%; PI ANNEXIN V, percent of total cells ([1]; 2.5 μM): 10.5%; PI, percent of total cells ([1]; 2.5 μM): 0%; 3H-thymidine in cyclolignan-treated lymphocytes (% of 3H-thymidine in control lymphocytes) (human T lymphocytes; AD patients): 7%; 3H-thymidine in cyclolignan-treated lymphocytes (% of 3H-thymidine in control lymphocytes) (human T lymphocytes; CD (Crohn's disease) patients): 8%; 3H-thymidine in cyclolignan-treated lymphocytes (% of 3H-thymidine in control lymphocytes) (human T lymphocytes; [4]): 10%; 3H-thymidine in cyclolignan-treated lymphocytes (% of 3H-thymidine in control lymphocytes) (human T lymphocytes; [5]): 15%; 3H-thymidine in cyclolignan-treated lymphocytes (% of 3H-thymidine in control lymphocytes) (human T lymphocytes; [6]): 13%; Proliferation of peripheral blood T lymphocytes, in words (human T lymphocytes): suppressed
3 | COc1cc([C@@H]2c3cc4c(cc3C[C@H]3COC(=O)[C@@H]32)OCO4)cc(OC)c1OC [Deoxypodophyllotoxin, reference compound] | after 3 days they were all dead | serious toxic signs on the second day | 6/6 | 4/6 | 0/6 | 0/6 | 0/6 |  |  |  |  |  |  |  |  |  |  |  |  |  | 
4 | COc1cc([C@@H]2c3cc4c(cc3[C@H](O)[C@H]3COC(=O)[C@H]23)OCO4)cc(OC)c1OC [Podophyllotoxin, reference compound] | on the second day all of the animals were dead | became quickly sick | 2/6 | 0/6 | 0/6 | 0/6 | 0/6 |  |  |  |  |  |  |  |  |  |  |  |  |  | 
